From patent publication US6511978B1, “Pyrrole derivatives useful for farnesyl transferase inhibitors and their preparations” (LG Life Sciences, Ltd., priority 1999, dated 2003)

Assays:
Ras farnesyl transferase [1] = target: T1, Ras farnesyl transferase (Homo sapiens, UniProt P49354+P49356); experiment: Ras farnesyl transferase enzyme inhibition, H-Ras substrate; assay type: biochemical; details: H-Ras substrate protein; recombinant farnesyl transferase; 30 minutes at 37° C.
T1 construct: made in house

Ras farnesyl transferase [2] = target: T1, Ras farnesyl transferase; experiment: Ras farnesyl transferase enzyme inhibition, K-Ras substrate (H-Ras fused with polybasic lysine domain of K-Ras); assay type: biochemical; details: K-Ras substrate (fused protein of H-Ras with polybasic lysine domain of K-Ras); recombinant farnesyl transferase
Ras farnesyl transferase [3] = target: T2, Ras farnesyl transferase (Rattus norvegicus, UniProt Q02293+Q04631); experiment: In vivo (intracellular) Ras farnesylation inhibition in Rat2 cell line expressing C-Harvey-Ras; assay type: cell-based; details: Rat2 cells expressing C-Harvey-Ras; concentration inhibiting 50% of farnesyl binding; read-out: H-Ras CIC50
T2 construct: endogenous in cells; host or cells: Rat2 fibroblasts transformed with C-Harvey-Ras or with the H-Ras/K-Ras polybasic-domain fusion
How it was run: (§1)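 Transformed Rat2 fibroblasts treated with compound (1% DMSO) for 4 h, then labelled with [^35S]methionine 150 μCi/ml for 20 h. Ras immunoprecipitated with Y13-259 and resolved on 13.5% SDS-PAGE autoradiography; CIC50 is concentration inhibiting 50% of farnesylated Ras band.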

Ras farnesyl transferase [4] = target: T2, Ras farnesyl transferase; experiment: In vivo (intracellular) Ras farnesylation inhibition in Rat2 cell line transformed with H-Ras fused with polybasic lysine domain of K-Ras; assay type: cell-based; details: Rat2 cells transformed with H-Ras/K-Ras polybasic domain fused protein; concentration inhibiting 50% of farnesyl binding; read-out: K-Ras CIC50
How it was run: as §1

| Compound | IC50 (Ras farnesyl transferase [1]) [nM] | IC50 (Ras farnesyl transferase [2]) [nM] | IC50 (Ras farnesyl transferase [3]) [nM] | IC50 (Ras farnesyl transferase [4]) [nM] |
| --- | --- | --- | --- | --- |
| O=[N+]([O-])c1cn(Cc2cncn2Cc2ccc3ccccc3c2)cc1-c1cccc2ccccc12 [Example 49, 1-[1-(naphthalen-2-ylmethyl)-1H-imidazol-5-ylmethyl]-4-(naphthalen-1-yl)-3-nitro-1H-pyrrole] | < 30 | > 30 | > 50 | > 10000 |
| Nc1cn(Cc2cncn2Cc2ccc(Cl)cc2)cc1-c1cccc2ccccc12 [Example 50, 3-amino-1-[1-(4-chlorobenzyl)-1H-imidazol-5-ylmethyl]-4-(naphthalen-1-yl)-1H-pyrrole] | > 30 | > 30 | > 50 | > 10000 |
| Cc1ncn(Cc2ccc3c(c2)OCO3)c1Cn1cc(C(=O)N2CCN(C)CC2)c(-c2cc(Br)cc3ccccc23)c1 [Example 51, 4-(3-bromonaphthalen-1-yl)-1-[4-methyl-1-(3,4-methylenedioxybenzyl)-1H-imidazol-5-ylmethyl]-3-(4-methylpiperazin-1-yl)carbonyl-1H-pyrrole] | < 10 | < 30 | < 10 | > 10000 |
| Cc1ncn(Cc2ccc3c(c2)OCO3)c1Cn1cc(C(=O)N2CCN(C)CC2)c(-c2cc(Cl)cc3ccccc23)c1 [Example 52, 4-(3-chloronaphthalen-1-yl)-1-[4-methyl-1-(3,4-methylenedioxybenzyl)-1H-imidazol-5-ylmethyl]-3-(4-methylpiperazin-1-yl)carbonyl-1H-pyrrole] | < 10 | < 30 | < 10 | > 10000 |
| Cc1ncn(Cc2ccc3ccccc3c2)c1Cn1cc(C(=O)N2CCN(C)CC2)c(-c2cc(Br)cc3ccccc23)c1 [Example 53, 4-(3-bromonaphthalen-1-yl)-1-[4-methyl-1-(naphthalen-2-yl)methyl-1H-imidazol-5-ylmethyl]-3-(4-methylpiperazin-1-yl)carbonyl-1H-pyrrole] | < 10 | < 30 | < 10 | > 10000 |
| Cc1ncn(Cc2ccc3ccccc3c2)c1Cn1cc(C(=O)N2CCN(C)CC2)c(-c2cc(Cl)cc3ccccc23)c1 [Example 54, 4-(3-chloronaphthalen-1-yl)-1-[4-methyl-1-(naphthalen-2-yl)methyl-1H-imidazol-5-ylmethyl]-3-(4-methylpiperazin-1-yl)carbonyl-1H-pyrrole] | < 10 | < 30 | < 10 | > 10000 |
| Cc1ncn(Cc2ccc3ccccc3c2)c1Cn1cc(C(=O)N2CCN(C)CC2)c(-c2cccc3ccccc23)c1 [Example 55, 1-[4-methyl-1-(naphthalen-2-yl)methyl-1H-imidazol-5-ylmethyl]-3-(4-methylpiperazin-1-yl)carbonyl-4-(naphthalen-1-yl)-1H-pyrrole] | < 10 | < 30 | < 10 | > 10000 |
